Structure (SMILES)	melting point [°C]
CC(=O)OCC1=CC2CC(=O)C3=COC(OC4OC(CO)C(O)C(O)C4O)C1C32 (stereo not given)	128
Cn1cc(S(=O)(=O)Cl)c(C(F)(F)F)n1	34 to 36
O=C(O)COc1ccc([N+](=O)[O-])cc1	182 to 188
CCC1(c2ccccc2)C(=O)N(COC)C(=O)N(COC)C1=O	117
CC(N)Cc1ccc(O)cc1 (stereo not given)	126
Cc1cc(C2(c3cc(C)c(O)c(CN(CC(=O)O)CC(=O)O)c3)OC(=O)c3ccccc32)cc(CN(CC(=O)O)CC(=O)O)c1O	181
OCCN1CCN(c2nccc(C(F)(F)F)n2)CC1	70 to 71
Cc1ccc(C(=O)COc2c(C(=O)c3ccc(Cl)c(C)c3Cl)c(C)nn2C)cc1	133
FC(F)(F)c1cccc(Br)n1	49.5
O=C(O)C1(C(=O)O)CC1	134 to 138
CC(C(=O)O)c1ccc(N2CC=CC2)c(Cl)c1 (stereo not given)	99
NC(=O)c1c(F)cccc1Cl	141
COc1cc(Br)c(CC(=O)O)cc1OC	94 to 96
Cc1ccc(S(=O)(=O)O)c(C)c1	57
Clc1cc(Cl)c2c(oc3c(Cl)cccc32)c1Cl	177
C[N+](C)(C)CC(O)CC(=O)[O-] (stereo not given)	208 to 212
CCCCCCCCC=CCCCCCCCCO	6
COc1c(OC)c(OC(C)=O)c2c(C#N)cccc2c1OC(C)=O	152
Cc1c(Cl)ccc([N+](=O)[O-])c1Cl	54
CCCCCCCCCCc1ccc(C(C)=O)cc1	33 to 35
NNC(=O)C=Cc1ccc(C=CC(=O)NN)cc1	258 to 260

Structure (SMILES)	melting point [°C]
CC12CCC(C(O)=C(Br)C1=O)C2(C)C (stereo not given)	188
CC(=O)c1ccc(N2CCNCC2)cc1	107 to 110
CCCCNC(=O)NNC(=O)OCC	97
COc1c(C(=O)Cl)csc1Cl	66 to 68
CN(C)C(=O)Cl	-33
O=C(O)C1(c2ccc(Cl)cc2)CCCC1	160 to 164
COc1ccc2c(CBr)cc(=O)oc2c1	212 to 217
COc1ccc(N=C=S)c([N+](=O)[O-])c1	111 to 113
CCOC(=O)c1nc(C(Cl)(Cl)Cl)n(-c2ccc(Cl)cc2Cl)n1	110
Cc1c([N+](=O)[O-])c(C)c([N+](=O)[O-])c(C(C)(C)C)c1[N+](=O)[O-]	110
COC(=N)C1=CC(O)C(O)C(CO)O1 (stereo not given)	196
Cc1cccc(NC(=O)C(F)(F)F)c1C(=O)O	168 to 169
Cc1c(C(=O)O)nnn1Cc1ccc(Br)cc1	192 to 193
NC(=S)Nc1ccc(F)cc1F	163 to 168
CC(C)CCCC(C)CCCC(C)CCCCC(C)CCCC(C)CCCC(C)C (stereo not given)	-38
N#Cc1cccc(S(=O)(=O)Cl)c1	50
Cc1ccc(C=C2C(=O)OC(C)(C)OC2=O)o1	93
COc1ccc([N+](=O)[O-])c(N)c1	131
CCC(=O)NC	-30.9
CCn1c(=O)n(CC)c(=O)n(CC)c1=O	96.8
CN(C)c1ccc(C=O)c(F)c1C#N	125 to 127

Structure (SMILES)	melting point [°C]
COc1cc(OC)nc(NC(=O)NS(=O)(=O)c2ncccc2C(F)(F)F)n1	180
CN(CCCC(=O)c1cccnc1)N=O	67.5
C=CCN(CC=C)c1c(C)cc(OC(=O)NC)cc1C	67
CC1CCCCC1NC(=O)Nc1ccccc1 (stereo not given)	136
NS(=O)(=O)c1cc([N+](=O)[O-])c(Cl)s1	160 to 162
Fc1cc(Br)c(Br)cc1F	33
NNC(=O)COc1ccc(OC(F)(F)F)cc1	130 to 133
CC12CCC(C3(CCC(=O)O3)C1=O)C2(C)C (stereo not given)	207
Cc1ccc(C(=O)CCCCl)cc1C	46 to 49
COc1ccc(Cl)c([N+](=O)[O-])c1	44
CC1(C)OC(=O)C(=Cc2cccc([N+](=O)[O-])c2)C(=O)O1	322
CC(CCC(=O)O)C1CCC2C3CCC4CC(O)CCC4(C)C3CCC12C (stereo not given)	186
Cc1ncsc1C	83.5
CC1CCCC(C)(C)C1 (stereo not given)	-65.7
CC12CCC(=O)CC1CCC1C2CCC2(C)C1CCC21OCCO1 (stereo not given)	192 to 196
CCCCCCCC(=O)OC1CCC2(C)C(=CCC3C2CCC2(C)C(C(C)CCCC(C)C)CCC32)C1 (stereo not given)	110
CCCCCCCCCCSCCCCCCCCCC	27
Cc1nc(-c2cnccn2)sc1C(=O)CBr	100
CCCCCCC(O)CC=CCCCCCCCC(=O)O (stereo not given)	5.5
O=C1c2ccccc2OC(CCCl)N1O (stereo not given)	114 to 116
Cc1cc(C(=O)O)c(C)n1C1CC1	178 to 185

Structure (SMILES)	melting point [°C]
NC(=S)c1ncc(C(F)(F)F)cc1N1CCCC1	176 to 180
Cc1cc(Cl)cc(C)c1N	48
Cc1ccc(C(=O)O)cc1Br	208
Nc1c(I)cc(I)c(C(=O)O)c1I	196 to 199
O=c1cc[nH]c(=O)o1	156
FC(F)(F)N1C(F)(F)C(F)(F)OC(F)(F)C1(F)F	-80
O=C1NCCN1CCO	49
O=Cc1ccc(C(=O)O)s1	169
Cn1cc(C=O)c(N)n1	133 to 134
CCOc1cccc(F)c1	-27.5
O=Cc1c(Cl)ccc(Cl)c1Cl	86 to 89
CCCCCCCCCCCCCBr	6.2
BrCCC(Br)CBr (stereo not given)	-18
Clc1cc2c(cc1Cl)Oc1c(Cl)c(Cl)cc(Cl)c1O2	206
N#Cc1c(N)sc2c1CCCC2	142
Nc1ncnc2c1ccn2C1OC(CO)C(O)C1O (stereo not given)	247
CCC(C)(S(=O)(=O)CC)S(=O)(=O)CC	76
CC(Br)C(Br)CBr (stereo not given)	-19

Second part, the compound after the results:

melting point [°C]	Structure (SMILES)
104	c1ccc2c(c1)nnn2C1CCCCC1
123 to 126	O=C1OC(=O)c2c(Cl)cccc21
165 to 166	Cc1ccc2cc([N+](=O)[O-])ccc2n1
233 to 235	O=C1c2ccccc2C(=O)N1O
37 to 37.5	CC(Cc1ccccc1)C(=O)O (stereo not given)
29	C=Cc1ccccc1OC
282 to 283	O=C(O)c1ccc(-c2ccsc2)cc1
172 to 175	c1ccc(-c2cc(-c3ccccc3)cc(-c3ccccc3)c2)cc1
49	c1ccc(O[Si](Oc2ccccc2)(Oc2ccccc2)Oc2ccccc2)cc1
198 to 202	O=C(NC1(C(=O)O)Cc2ccccc2C1)OCC1c2ccccc2-c2ccccc21
144 to 148	O=C(c1ccccc1)c1ccc(O)c(O)c1
6	c1ccc(CCCc2ccccc2)cc1
140 to 142	O=C(NC(Cc1ccccc1)C(=O)O)OCc1ccccc1[N+](=O)[O-] (stereo not given)
304	Nc1ccc2c(c1)C(=O)c1ccccc1C2=O
293 to 296	c1ccc(-c2nc3ccccc3[nH]2)cc1
47	OC(CCCc1ccccc1)c1ccccc1 (stereo not given)
198 to 200	Cc1nc(/C(C#N)=C\c2ccccc2Cl)sc1/N=N/c1ccc(Cl)cc1
42.5 to 44.5	Cn1ccc2cc(N=C=O)ccc21
227	Oc1ccc2ccncc2c1
116	CC(O)(C(=O)O)c1ccccc1 (stereo not given)
121	O=C(C1=NOC2C(=O)N(c3ccc(Cl)cc3)C(=O)C12)c1ccc2ccccc2c1 (stereo not given)
95	CC(=O)C(=CN)Cc1ccccc1
160	COc1ccc(-c2nnc3n2NC(c2ccc(Cl)cc2)S3)cc1 (stereo not given)
133 to 135	O=C(OC1OC(=O)c2ccccc21)c1ccccc1 (stereo not given)
118	ON=Cc1ccc(Br)cc1

melting point [°C]	Structure (SMILES)
35.5	Cc1ccc(O)cc1
110	COc1ccc2c(=O)cc(-c3ccccc3)oc2c1
348	O=c1cc(-c2ccc(O)cc2)oc2cc(O)cc(O)c12
131	Ic1ccc(-n2cccc2)cc1
140	Cc1ccc(N=Nc2ccc(C)cc2)cc1
180	COc1ccc(/C(C(=O)c2ccccc2)=C2/C(=O)N(C(C)=O)c3ccccc32)cc1
165	CC1(C)OC(=O)C(=NNc2ccccc2[N+](=O)[O-])C(=O)O1
253	Cc1c(NC(=O)c2cccnc2)c(=O)n(-c2ccccc2)n1C
142	O=C(Nc1ccccc1SSc1ccccc1NC(=O)c1ccccc1)c1ccccc1
182 to 183	CC(=O)N1N=C2c3ccccc3CCC2C1c1ccc(Cl)cc1 (stereo not given)
181	O=[N+]([O-])c1ccc(CCc2ccc([N+](=O)[O-])cc2)cc1
-42.8	CCC1CCc2ccccc2C1 (stereo not given)
308 to 309	O=Cc1c[nH]c2c(C(=O)O)cccc12
196	Oc1cc(OCc2ccccc2)ccn1
192	Cc1cc(NS(=O)(=O)c2ccc(N)cc2)sn1
105	O=C(c1ccccc1)c1ccc(Cl)c([N+](=O)[O-])c1
29	CCOC(=O)c1ccccc1N=C=O
85	c1ccc2sc(SN3CCOCC3)nc2c1
191	N#CC1=C(N)Oc2c(c(C(F)(F)F)nn2-c2ccccc2)C1c1ccccc1 (stereo not given)
206	CC12CCC(CC(Br)c3ccccc3)(OC1=O)C2(C)C (stereo not given)
118	CC1=C(C(=O)OCc2ccccc2)C(c2ccccc2)NC(=O)N1C (stereo not given)
204 to 205	Cc1nc2ccccc2c(C(=O)O)c1N
185	O=C1C(c2ccccc2)=Nc2cc([N+](=O)[O-])ccc21
87 to 88	CNCc1sc(-c2ccccc2)nc1-c1ccccc1
